Columns and labels:
HUVEC cells = assay: HUVEC tube formation assay; assay type: cell-based, human; settings: 11 h; 30 μM, IC50 or 300 μM, mainly 300 μM
Method: The anti-angiogenic potential of DHPMs was tested using an in vitro Angiogenesis Assay Kit according to the manufacturer’s instructions. […] These plates were incubated for 11 hours at 37°C, in 5% CO2. Wells were subsequently photographed using an inverted light microscope at 20x magnification and tube formation analyzed. Seven fields per group of 3 independent experiments were quantified by pattern recognition according to manufacturer’s instructions.

MCF-7 cells [1] = assay: DAPI staining and transmission electron microscopy analysis; assay type: cell-based, human; settings: MCF-7, 4p 0.4 mM, 24 h (DAPI) or 48 h (TEM)
Method: Aliquots of 8 × 10^5 MCF-7 cells were seeded in 12-well plates and ultra-structural analysis performed on controls or after 48 h of treatment with 4p (0.4 mM). Cells were washed twice with PBS and fixed overnight with glutaraldehyde (2.5%) at 4°C. Cells were subsequently washed with 0.1 M sodium cacodylate buffer (pH 7.2) and post-fixed in 1% osmium tetroxide and 0.8% potassium ferricyanide (10 mM CaCl2 in 0.2 M sodium cacodylate buffer). Samples were washed twice with 0.1 M sodium cacodylate buffer (pH 7.2) and in-block staining was performed for 16 h with 0.5% uranyl acetate at 4°C. Cells were dehydrated in a graded acetone series (50-100%) and embedded in Spurr resin.
Cells were analyzed under a laser scanning confocal microscope. B, MCF-7 cells control or treated with 4p (0.4 mM) for 24 h had their nucleus stained with DAPI (left panels) or were processed and analyzed by Transmission Electron Microscopy after exposure to 4p (0.4 mM) for 48 h (right panels).

MDA-MB-231 cells [2] = assay: MTT cell viability assay, MDA-MB-231; assay type: cell-based, human; settings: for IC50: 72 h treatment, MTT, read-out: IC50 MDA-MB-231; for Effect on cell viability, MDA-MB-231: all concentrations tested 100 μM – 1.00 mM, 72 h
Method: Absorbance readings were measured by a spectrophotometer. Cell viability was normalized to control (vehicle only).

Kinesin Eg5 = target: T1, Kinesin Eg5 (Homo sapiens, UniProt P52732); assay: Kinesin inhibition assay (Kinesin ELIPA); assay type: biochemical; settings: compound at its IC50, 30 min, 360 nm
T1 sequence (P52732 1-1056): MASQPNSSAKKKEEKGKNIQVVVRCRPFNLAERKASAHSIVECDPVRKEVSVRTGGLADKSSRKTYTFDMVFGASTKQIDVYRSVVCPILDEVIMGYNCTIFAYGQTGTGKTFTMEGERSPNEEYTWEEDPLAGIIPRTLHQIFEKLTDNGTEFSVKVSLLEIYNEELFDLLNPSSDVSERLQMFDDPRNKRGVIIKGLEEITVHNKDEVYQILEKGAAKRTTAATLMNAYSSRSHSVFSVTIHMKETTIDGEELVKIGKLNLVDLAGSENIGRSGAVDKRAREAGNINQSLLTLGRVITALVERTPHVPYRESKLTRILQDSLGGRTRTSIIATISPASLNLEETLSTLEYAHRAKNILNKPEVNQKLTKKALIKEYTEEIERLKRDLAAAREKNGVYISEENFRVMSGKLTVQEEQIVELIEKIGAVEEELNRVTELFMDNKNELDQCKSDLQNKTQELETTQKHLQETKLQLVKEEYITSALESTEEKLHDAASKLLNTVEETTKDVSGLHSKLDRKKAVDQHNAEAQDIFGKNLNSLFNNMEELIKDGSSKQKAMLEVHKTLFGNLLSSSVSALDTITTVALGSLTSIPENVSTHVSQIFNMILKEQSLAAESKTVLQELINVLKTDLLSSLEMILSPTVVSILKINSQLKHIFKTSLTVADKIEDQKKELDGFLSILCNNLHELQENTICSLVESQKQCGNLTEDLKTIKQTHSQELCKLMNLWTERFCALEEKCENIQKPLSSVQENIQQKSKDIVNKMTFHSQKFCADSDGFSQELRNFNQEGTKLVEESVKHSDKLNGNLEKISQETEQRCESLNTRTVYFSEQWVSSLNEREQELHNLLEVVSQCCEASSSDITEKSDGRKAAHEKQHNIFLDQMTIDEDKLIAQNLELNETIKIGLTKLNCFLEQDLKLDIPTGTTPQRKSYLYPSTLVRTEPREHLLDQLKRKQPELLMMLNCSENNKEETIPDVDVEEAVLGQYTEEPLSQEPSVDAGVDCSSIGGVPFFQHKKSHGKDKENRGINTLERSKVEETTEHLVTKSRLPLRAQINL
Method: Kinesin inhibition assays were performed using Kinesin ELIPA (Enzyme Linked Inorganic Phosphate Assay). Reactions were conducted in 96-well plates according to the manufacturer’s recommendations (Kinesin ELIPA Biochem Kit – BK060).
Reactions were measured in spectrophotometer set in kinetic mode and an absorbance wavelength of 360 nm.

MDA-MB-231 cells [3] = assay: CFSE proliferation assay, MDA-MB-231; assay type: cell-based, human; settings: 72 h, IC50 concentration of each compound
Method: For proliferation assays, cells were treated with IC50 concentrations of each compound. Adherent and floating cells were harvested at the same tube and pelleted by centrifugation at 300 g for 5 minutes and stained. Data acquisition of these two fractions put together was performed on a FACSCalibur flow cytometer using CellQuest software and analysed using the FloJo Software. […] After adhesion, cells were treated with DHPMs or maintained in culture medium only (control) for 72 h. The percentage of proliferative cells was calculated based on the CFSE fluorescence profile analysis of the tested samples compared to that of the fixed undivided control cells (treated with 10 μM of colchicine) using the FlowJo software.

MCF-7 cells [4] = assay: α-tubulin immunostaining, spindle formation; assay type: cell-based, human; settings: for Monoastral Spindle (%) 24 h / Bipolar Spindle (%) 24 h / Mitotic spindle / microtubule organization (α-tubulin immunostaining): MCF-7, 24 h; for Monoastral Spindle (%) 24 h / Bipolar Spindle (%) 24 h / Bipolar Spindle (%) 48 h / Monoastral Spindle (%) 48 h: n = 300 dividing cells; for Monoastral Spindle (%) 24 h / Mitotic spindle / microtubule organization (α-tubulin immunostaining): 4m 1.0 mM, 4bt 0.8 mM, 4p 0.4 mM, 4bc 1.0 mM, 4x 0.8 mM; for Monoastral Spindle (%) 24 h: monastrol 0.1 mM; for Bipolar Spindle (%) 24 h / Bipolar Spindle (%) 48 h / Monoastral Spindle (%) 48 h: concentrations as E14; for Bipolar Spindle (%) 48 h / Monoastral Spindle (%) 48 h: MCF-7, 48 h
Method: Aliquots of 7 × 10^4 MCF-7 cells were seeded onto 12 mm round glass coverslips placed in the base of each well of a 24-well plate. After adhesion, cells were treated for 24 and 48 h with the pre-selected compounds at their maximum non-cytotoxic concentrations to normal cells or incubated with culture medium only for the same duration (negative control). Cells were washed with PBS, fixed with 3.7% formaldehyde, permeabilized with 0.1% Triton X-100 and blocked in PBS supplemented with 1% skimmed milk, 2.5% bovine serum albumin (BSA) and 8% fetal bovine serum (FBS) at room temperature. Cells were incubated overnight with mouse anti-α-tubulin antibody (1:500) at 4°C, followed by incubation with a secondary antibody: Alexa Fluor 488 rabbit anti-mouse IgG (1:400), for 1 hour at 37°C. Nuclei were stained with 300 nM DAPI. The coverslips were mounted with ProLong Gold Antifade and specimens observed under a laser scanning confocal microscope.
Table S1. Quantification of monopolar spindles occurred as a result of treatment with DHPM derivatives. MCF-7 control cells or cells treated for 24 or 48 h with 4m (1 mM), […]
antibody. The percentage of dividing cells showing presence of monoastral and bipolar spinles formation determined (n = 300).
Experimental Group Monoastral Spindle (%) Bipolar Spindle (%)

SMILES	HUVEC tube formation (pattern recognition / morphology) (HUVEC cells)	Cell phenotype by DAPI staining and TEM (MCF-7 cells [1])	IC50 (MDA-MB-231 cells [2]) [µM]	Effect on cell viability, MDA-MB-231 (MDA-MB-231 cells [2])	Inhibition of kinesin Eg5 activity in vitro (in words) (Kinesin Eg5)	Inhibition of cell proliferation, MDA-MB-231 (MDA-MB-231 cells [3])	Monoastral Spindle (%) 24 h (MCF-7 cells [4]) [%]	Bipolar Spindle (%) 24 h (MCF-7 cells [4]) [%]	Mitotic spindle / microtubule organization (α-tubulin immunostaining) (MCF-7 cells [4])	Bipolar Spindle (%) 48 h (MCF-7 cells [4]) [%]	Monoastral Spindle (%) 48 h (MCF-7 cells [4]) [%]
CCOC(=O)C1=C(C)NC(=S)NC1c1ccccc1O (stereo not shown) [Compound 4p]	more pronounced anti-angiogenic morphological aspect	mitotic catastrophe phenotype	68.4	significant decrease in cell viability	not statistically significant	Approximately 50%	0	0	disruption of the microtubules	0	0
CC(=O)C1=C(C)NC(=O)NC1c1ccccc1[N+](=O)[O-] (stereo not shown) [Compound 4x]	–	–	237	significant decrease in cell viability	not statistically significant	–	50.80	49.20	caused monoastral spindle formation	12.01	87.99

Source: publication PMC4411898, “Impact of kinesin Eg5 inhibition by 3,4-dihydropyrimidin-2(1H)-one derivatives on various breast cancer cell features” (BMC Cancer, 2015)
